Source: patent US10899733B2, “Inhibitors of PARPs that catalyze mono-ADP-ribosylation” (OREGON HEALTH & SCIENCE UNIVERSITY, priority 2017, dated 2021)
pIC50: −log10 of the molar value. Where two headings read alike, the source gives them in different places.

Legend:
Type in all cases: biochemical
PARP14cat-wwe [1] = target: T1, PARP14cat-wwe (Homo sapiens, UniProt Q460N5); experiment: PARP panel: ADP-ribosylation of SRPK2 using 6-a-NAD+; settings: 6-a-NAD+
T1 construct: PARP14cat-wwe
T1 sequence (Q460N5 1523-1801): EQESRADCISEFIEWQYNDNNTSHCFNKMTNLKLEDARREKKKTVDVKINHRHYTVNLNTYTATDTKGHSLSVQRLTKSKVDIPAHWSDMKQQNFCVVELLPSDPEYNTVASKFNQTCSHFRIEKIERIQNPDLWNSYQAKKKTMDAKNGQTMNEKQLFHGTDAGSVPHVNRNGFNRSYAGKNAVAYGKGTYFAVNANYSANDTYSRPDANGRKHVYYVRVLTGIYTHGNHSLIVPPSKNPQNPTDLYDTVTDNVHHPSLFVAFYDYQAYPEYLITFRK
Text: (§1) We screened 22 against poly-ADPr PARPs (PARPs 1, 2, and PARP5b) and mono-ADPr PARPs (PARPs 3, 4, 10, 11, 14, and 15) in an assay that measures ADP-ribosylation of SRPK2 using an N^6-alkyne tagged NAD^+ (6-a-NAD^+), a clickable NAD^+ analogue.{Jiang et al., 2010, J. Am. Chem. Soc. […] The observed selectivity is most likely due to the differences in the last position of the H-Y-E catalytic triad of these enzymes versus the H-Y-I triad found in PARP10. {Hottiger et al., 2010, Trends Biochem. Sci. 35, pp. 208-219} The glutamate (E988 in PARP1) in PARPs 1-4 and PARP 5b most likely clash with the pyridiny-4-yl group at the 6-position of 22, while PARP10 contains an isoleucine (1978) at this position that can accommodate this group (FIG. 1B).

PARP2 = PARP2 (Homo sapiens, UniProt Q9UGN5); experiment: as above
Text: as §1

PARP3 = target: T2, PARP3 (Homo sapiens, UniProt Q9Y6F1); experiment: as above
T2 sequence (Q9Y6F1 1-533): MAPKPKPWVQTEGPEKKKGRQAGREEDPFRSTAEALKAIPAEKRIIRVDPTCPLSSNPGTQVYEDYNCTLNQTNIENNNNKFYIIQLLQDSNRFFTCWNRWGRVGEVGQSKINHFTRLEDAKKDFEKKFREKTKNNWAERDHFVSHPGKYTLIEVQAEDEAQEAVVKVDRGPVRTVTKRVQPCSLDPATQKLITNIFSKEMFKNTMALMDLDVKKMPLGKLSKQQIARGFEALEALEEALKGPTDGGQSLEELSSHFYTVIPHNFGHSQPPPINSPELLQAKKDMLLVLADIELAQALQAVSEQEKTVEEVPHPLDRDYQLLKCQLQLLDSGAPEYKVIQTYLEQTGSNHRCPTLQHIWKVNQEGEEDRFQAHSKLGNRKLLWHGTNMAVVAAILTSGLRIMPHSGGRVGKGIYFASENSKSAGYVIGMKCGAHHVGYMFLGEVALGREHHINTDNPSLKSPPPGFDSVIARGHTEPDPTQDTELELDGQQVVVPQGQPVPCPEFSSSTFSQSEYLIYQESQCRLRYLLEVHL
Text: as §1

PARP5bcat = target: T3, PARP5bcat (Homo sapiens, UniProt Q9H2K2); experiment: as above
T3 construct: PARP5bcat
Text: as §1

PARP1 = PARP1 (Homo sapiens, UniProt P09874); experiment: as above
Text: as §1

PARP14cat-wwe [2] = experiment: as above; settings: PARP14cat-wwe over PARP10cat
Text: as §1

PARP11 [3] = target: T4, PARP11 (Homo sapiens, UniProt Q9NR21); experiment: as above
T4 sequence (Q9NR21 1-338): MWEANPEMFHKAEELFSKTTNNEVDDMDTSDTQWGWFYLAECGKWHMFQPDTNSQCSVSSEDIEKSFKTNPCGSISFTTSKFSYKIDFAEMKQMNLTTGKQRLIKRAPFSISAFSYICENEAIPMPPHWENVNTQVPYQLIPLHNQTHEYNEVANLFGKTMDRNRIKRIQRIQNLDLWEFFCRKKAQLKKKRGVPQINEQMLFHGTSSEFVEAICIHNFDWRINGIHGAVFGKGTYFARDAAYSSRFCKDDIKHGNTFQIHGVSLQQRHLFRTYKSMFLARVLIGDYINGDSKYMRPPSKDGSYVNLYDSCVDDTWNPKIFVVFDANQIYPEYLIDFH
Text: as §1

PARP15cat = target: T5, PARP15cat (Homo sapiens, UniProt Q460N3); experiment: as above
T5 construct: PARP15cat
T5 sequence (Q460N3 482-678 limits assumed): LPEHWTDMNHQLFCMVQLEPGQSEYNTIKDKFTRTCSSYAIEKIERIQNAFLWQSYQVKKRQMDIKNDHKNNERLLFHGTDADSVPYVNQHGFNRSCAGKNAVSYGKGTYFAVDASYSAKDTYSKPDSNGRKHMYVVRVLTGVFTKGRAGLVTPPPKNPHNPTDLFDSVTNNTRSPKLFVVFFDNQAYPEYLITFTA
Text: as §1

PARP4brct-cat [4] = target: T6, PARP4brct-cat (Homo sapiens, UniProt Q9UKK3); experiment: as above; settings: up to 100 μM
T6 construct: PARP4brct-cat
Text: as §1

PARP10cat = target: T7, PARP10cat (Homo sapiens, UniProt Q53GL7); experiment: as above
T7 sequence (Q53GL7 806-1025 limits assumed): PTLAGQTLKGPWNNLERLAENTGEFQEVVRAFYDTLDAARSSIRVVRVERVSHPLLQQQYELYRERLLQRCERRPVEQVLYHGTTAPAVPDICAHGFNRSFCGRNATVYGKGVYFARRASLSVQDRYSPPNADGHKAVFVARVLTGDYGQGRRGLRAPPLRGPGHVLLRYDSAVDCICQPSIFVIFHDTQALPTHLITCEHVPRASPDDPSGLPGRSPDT
Text: as §1

PARP4brct-cat [5] = experiment: as above; settings: PARP4brct-cat over PARP10cat
Text: as §1

PARP11 [6] = target: T4, PARP11; experiment: Inhibition of PARP11-mediated ADP-ribosylation of SRPK2 using NAD+ (100 μM); settings: ADP-ribosylation of SRPK2, NAD+ 100 μM

Chain of PARP2 (Q9UGN5 whole entry): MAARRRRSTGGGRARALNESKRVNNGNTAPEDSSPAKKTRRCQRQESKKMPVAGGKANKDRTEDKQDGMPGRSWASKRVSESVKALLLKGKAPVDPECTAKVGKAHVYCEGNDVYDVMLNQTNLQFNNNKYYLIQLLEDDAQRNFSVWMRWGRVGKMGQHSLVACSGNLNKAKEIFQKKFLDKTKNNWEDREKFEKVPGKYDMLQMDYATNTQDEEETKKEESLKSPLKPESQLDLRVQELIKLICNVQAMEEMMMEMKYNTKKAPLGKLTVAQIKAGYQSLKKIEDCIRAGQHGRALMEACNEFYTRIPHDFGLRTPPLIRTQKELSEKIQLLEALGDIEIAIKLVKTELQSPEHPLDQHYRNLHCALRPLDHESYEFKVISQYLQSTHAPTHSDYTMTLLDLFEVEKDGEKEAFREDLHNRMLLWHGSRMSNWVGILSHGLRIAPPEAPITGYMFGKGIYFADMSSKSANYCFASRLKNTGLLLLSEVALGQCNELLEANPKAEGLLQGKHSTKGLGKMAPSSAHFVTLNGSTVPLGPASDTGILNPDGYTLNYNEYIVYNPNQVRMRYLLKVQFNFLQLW
Chain of PARP1 (P09874 whole entry): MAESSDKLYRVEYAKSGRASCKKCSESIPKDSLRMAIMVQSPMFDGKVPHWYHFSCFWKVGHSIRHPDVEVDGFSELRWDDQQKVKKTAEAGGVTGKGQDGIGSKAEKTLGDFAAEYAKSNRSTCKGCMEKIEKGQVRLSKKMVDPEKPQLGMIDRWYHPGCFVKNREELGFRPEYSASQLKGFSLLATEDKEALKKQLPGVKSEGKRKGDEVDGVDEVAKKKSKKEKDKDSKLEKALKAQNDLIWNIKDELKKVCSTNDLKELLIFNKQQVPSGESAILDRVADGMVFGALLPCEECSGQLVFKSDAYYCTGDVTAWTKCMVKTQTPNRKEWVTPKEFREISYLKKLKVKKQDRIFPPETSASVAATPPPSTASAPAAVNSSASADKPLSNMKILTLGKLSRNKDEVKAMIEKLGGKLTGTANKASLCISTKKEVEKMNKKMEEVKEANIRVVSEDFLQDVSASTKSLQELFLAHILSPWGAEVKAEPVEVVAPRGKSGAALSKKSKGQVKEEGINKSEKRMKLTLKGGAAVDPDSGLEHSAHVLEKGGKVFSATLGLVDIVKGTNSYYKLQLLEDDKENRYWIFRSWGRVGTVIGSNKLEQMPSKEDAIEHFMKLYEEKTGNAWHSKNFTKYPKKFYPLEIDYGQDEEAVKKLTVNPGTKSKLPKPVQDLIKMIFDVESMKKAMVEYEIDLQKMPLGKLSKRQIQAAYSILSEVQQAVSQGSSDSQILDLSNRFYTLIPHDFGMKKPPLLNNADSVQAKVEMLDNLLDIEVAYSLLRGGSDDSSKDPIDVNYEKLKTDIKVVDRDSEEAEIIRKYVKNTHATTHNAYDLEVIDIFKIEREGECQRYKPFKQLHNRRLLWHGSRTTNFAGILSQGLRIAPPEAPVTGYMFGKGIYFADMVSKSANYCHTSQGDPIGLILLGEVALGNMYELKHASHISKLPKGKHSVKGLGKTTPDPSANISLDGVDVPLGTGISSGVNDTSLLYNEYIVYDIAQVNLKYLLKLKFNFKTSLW
T3 sequence (Q9H2K2 959-1164): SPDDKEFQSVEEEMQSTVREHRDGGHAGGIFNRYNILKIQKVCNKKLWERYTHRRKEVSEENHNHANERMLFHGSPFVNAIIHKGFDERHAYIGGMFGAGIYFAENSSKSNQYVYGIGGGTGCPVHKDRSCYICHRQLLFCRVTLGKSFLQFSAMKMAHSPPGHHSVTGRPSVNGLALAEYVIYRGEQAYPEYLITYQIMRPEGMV
T6 sequence (Q9UKK3 whole entry): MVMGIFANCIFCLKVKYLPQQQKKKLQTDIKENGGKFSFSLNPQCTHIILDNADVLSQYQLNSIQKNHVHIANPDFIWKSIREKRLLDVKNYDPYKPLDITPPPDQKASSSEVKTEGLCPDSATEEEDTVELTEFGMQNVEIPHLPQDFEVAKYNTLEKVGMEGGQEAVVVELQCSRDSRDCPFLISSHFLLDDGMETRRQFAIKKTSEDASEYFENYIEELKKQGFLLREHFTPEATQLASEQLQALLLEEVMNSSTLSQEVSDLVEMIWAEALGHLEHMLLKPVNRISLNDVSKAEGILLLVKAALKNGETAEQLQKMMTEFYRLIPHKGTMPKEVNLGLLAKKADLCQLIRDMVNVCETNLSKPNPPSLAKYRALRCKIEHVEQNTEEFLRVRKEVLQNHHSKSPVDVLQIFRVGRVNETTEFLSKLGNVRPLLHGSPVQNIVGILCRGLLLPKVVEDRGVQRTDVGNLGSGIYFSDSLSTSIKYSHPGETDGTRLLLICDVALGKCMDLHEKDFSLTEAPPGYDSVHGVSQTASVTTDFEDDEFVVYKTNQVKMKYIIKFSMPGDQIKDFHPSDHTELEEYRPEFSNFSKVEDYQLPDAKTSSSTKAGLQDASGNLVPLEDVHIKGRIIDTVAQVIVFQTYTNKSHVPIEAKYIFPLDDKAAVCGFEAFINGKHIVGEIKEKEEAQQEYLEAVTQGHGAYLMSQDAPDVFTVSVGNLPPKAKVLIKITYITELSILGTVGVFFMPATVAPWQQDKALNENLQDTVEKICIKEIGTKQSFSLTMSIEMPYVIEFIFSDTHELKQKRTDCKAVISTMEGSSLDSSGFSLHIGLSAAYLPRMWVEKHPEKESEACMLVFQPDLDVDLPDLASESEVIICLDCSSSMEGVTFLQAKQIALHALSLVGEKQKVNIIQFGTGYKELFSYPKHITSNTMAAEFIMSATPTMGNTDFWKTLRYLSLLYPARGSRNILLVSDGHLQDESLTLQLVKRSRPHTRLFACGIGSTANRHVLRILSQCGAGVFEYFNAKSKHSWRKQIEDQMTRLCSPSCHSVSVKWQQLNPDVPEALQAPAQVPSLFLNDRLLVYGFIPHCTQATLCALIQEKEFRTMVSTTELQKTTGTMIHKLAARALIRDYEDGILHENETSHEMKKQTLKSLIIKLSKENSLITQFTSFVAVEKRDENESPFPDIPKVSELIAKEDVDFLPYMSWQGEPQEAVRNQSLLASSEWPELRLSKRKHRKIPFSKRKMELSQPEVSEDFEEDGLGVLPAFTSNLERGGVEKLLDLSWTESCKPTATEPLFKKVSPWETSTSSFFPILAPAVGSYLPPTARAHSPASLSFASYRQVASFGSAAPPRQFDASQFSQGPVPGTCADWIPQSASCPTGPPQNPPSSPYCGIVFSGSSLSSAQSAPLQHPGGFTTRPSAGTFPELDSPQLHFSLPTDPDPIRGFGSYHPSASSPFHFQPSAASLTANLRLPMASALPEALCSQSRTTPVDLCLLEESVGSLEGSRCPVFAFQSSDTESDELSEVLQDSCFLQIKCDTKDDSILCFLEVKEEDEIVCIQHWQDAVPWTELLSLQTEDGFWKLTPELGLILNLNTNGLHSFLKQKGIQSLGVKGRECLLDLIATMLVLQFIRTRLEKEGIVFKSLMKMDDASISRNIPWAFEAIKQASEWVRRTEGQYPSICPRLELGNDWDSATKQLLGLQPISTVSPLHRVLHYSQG

**Q.** What does the source list for Cc1c(-c2ccnc(C(F)(F)F)c2)ccc2c1CCNC2=O [Compound 22, 5-methyl-6-(2-(trifluoromethyl)pyridin-4-yl)-3,4-dihydroisoquinolin-1(2H)-one]?
**A.** pIC50 (PARP14cat-wwe [1]): 4.22; PARP14cat-wwe pIC50 ± S.E.M. (PARP14cat-wwe [1]): 4.22 ± 0.04; pIC50 (PARP2; 6-a-NAD+): < 4.00; PARP/PARP10 (PARP2; PARP2 over PARP10cat): >37; inhibition of PARP2 (PARP2; up to 100 μM): does not inhibit; pIC50 (PARP3; 6-a-NAD+): < 4.00; PARP/PARP10 (PARP3; PARP3 over PARP10cat): >>37; inhibition of PARP3 (PARP3; up to 100 μM): does not inhibit; pIC50 (PARP5bcat; 6-a-NAD+): < 4.00; PARP/PARP10 (PARP5bcat; PARP5bcat over PARP10cat): >>37; inhibition of PARP 5b (PARP5bcat; up to 100 μM): does not inhibit; pIC50 (PARP1; 6-a-NAD+): < 4.00; PARP/PARP10 (PARP1; PARP1 over PARP10cat): >>37; inhibition of PARP1 (PARP1; up to 100 μM): does not inhibit; PARP/PARP10 (PARP14cat-wwe [2]): 22; pIC50 (PARP11 [3]; 6-a-NAD+): 4.20; PARP/PARP10 (PARP11 [3]; PARP11 over PARP10cat): 23; pIC50 (PARP15cat; 6-a-NAD+): 4.20; PARP15cat pIC50 ± S.E.M. (PARP15cat; 6-a-NAD+): 4.20 ± 0.05; PARP/PARP10 (PARP15cat; PARP15cat over PARP10cat): 23; inhibition of PARP4 (PARP4brct-cat [4]): does not inhibit; selectivity for PARP10 over PARPs 1-4 and PARP 5b (PARP10cat; 6-a-NAD+): greater than 37 fold; pIC50 (PARP10cat; 6-a-NAD+, read-out: PARP10cat IC50): 5.57; IC50 (PARP10cat; 6-a-NAD+, read-out: PARP10cat pIC50 ± S.E.M. (converted)): 2.75 µM; PARP/PARP10 (PARP10cat; PARP10cat over PARP10cat): 1; PARP/PARP10 (PARP4brct-cat [5]): >37; pIC50 (PARP11 [6]): 4.29; PARP11 pIC50 ± S.E.M. (PARP11 [6]): 4.29 ± 0.04
